Experimental data reported in article PMC9530166, “Allosteric regulation of glycogen breakdown by the second messenger cyclic di-GMP” (Nature Communications, 2022).

Legend:
[1] = system: GlgXR438A-R579A; test: Fluorescence polarization binding, GlgXR438A-R579A; set-up: species or system Streptomyces venezuelae
Excerpt: Fig. 5 Structure of the S. venezuelae GlgX-c-di-GMP complex. a Ribbon diagram of the S. venezuelae GlgX-c-di-GMP complex with one GlgX subunit colored cyan and the other salmon. Shown as sticks are the c-di-GMP molecules bound at each end of the antiparallel dimer. […] There was clear density for each c-di-GMP molecule. b Close up of the GlgX-c-di-GMP binding interaction. Key residues mediating contacts to the c-di-GMP are shown as sticks and labeled. Hydrogen bonds from GlgX residues that specify binding to the guanine are indicated by yellow dashed lines. c Fluorescence polarization (FP) binding isotherm showing interaction of GlgX, GlgXE47A-R49A and GlgXR438A-R579A for F-c-di-GMP in red, green and blue respectively. Also shown is the binding isotherm for GlgX binding to F-c-di-AMP in black. […] The y-axis and x-axis are millipolarization (mP) units and GlgX concentration (μM), respectively. Shown are representative binding curves for each. The experiments were performed in technical triplicates and the error between measurements reported. […]
Thus, we used this F-tagged c-di-GMP in fluorescence polarization (FP) studies to quantify the interaction between GlgX and c-di-GMP. […] To ensure that the presence of the fluorescent tag was not impacting the GlgX interaction with c-di-GMP we used microscale thermophoresis (MST) to quantify c-di-GMP binding to GlgX. […]

[2] = system: His6-GlgXE378A; test: BCA reducing-end enzyme assay, GlgXE378A; assay type: biochemical, Streptomyces venezuelae; details: 50 µM c-di-GMP, 0.05% glycogen from rabbit, 1 µM enzyme
Description: Fig. 2 c-di-GMP stimulates glycogen breakdown activity of GlgX in vitro. a Bicinchoninic acid (BCA) in vitro enzyme assay. The purple copper bicinchoninate complex indicating GlgX-mediated generation of reducing ends in glycogen was quantified by photometric measurements at 562 nm. A562 values were converted into reducing ends [µM glucose equivalents] based on D-glucose as a standard. Reactions contained 0.05% (w/v) glycogen from rabbit, 1 µM GlgX and increasing concentrations of c-di-GMP (0–100 µM). Source data are provided as a Source data file. b BCA assay containing 0.05% of either glycogen from rabbit, pullulan, amylopectin from maize or amylose from potato as substrates. Where appropriate, 1 µM GlgX or 50 µM c-di-GMP were added to the reaction samples. Source data are provided as a Source data file. c BCA assay as in a with or without c-di-GMP (50 µM), 0.05% glycogen from rabbit (S) and 1 µM Vnz25270, GlgX, the active site mutants GlgXD342A, GlgXE378A, GlgXD342A+E378A, or the c-di-GMP-binding mutant variant GlgXDETR49-52 as indicated. […]
Hydrolysis of carbohydrates was assessed in vitro by measuring the accumulation of reducing sugar ends using the BCA assay[42] and D-glucose as a standard for calibration (Supplementary Fig. 11). […] 125 μl sample aliquots were transferred in duplicates to a 96 well plate and the absorbance at 562 nm was measured using a plate reader.

[3] = target: [RsiG + WhiG]; set-up: method as in PMID 25171413, PMID 31810759; details: cited from earlier work
[4] = target: GlgX (Streptomyces venezuelae, UniProt F2RAW5); test: Fluorescence polarization (FP) binding, wild-type GlgX; details: summary value of FP (Fig. 5c) and MST (Supplementary Fig. 8); read-out: affinity of GlgX for c-di-GMP
Excerpt: Fig. 5 Structure of the S. venezuelae GlgX-c-di-GMP complex. a Ribbon diagram of the S. venezuelae GlgX-c-di-GMP complex with one GlgX subunit colored cyan and the other salmon. Shown as sticks are the c-di-GMP molecules bound at each end of the antiparallel dimer. […] There was clear density for each c-di-GMP molecule. b Close up of the GlgX-c-di-GMP binding interaction. Key residues mediating contacts to the c-di-GMP are shown as sticks and labeled. Hydrogen bonds from GlgX residues that specify binding to the guanine are indicated by yellow dashed lines. c Fluorescence polarization (FP) binding isotherm showing interaction of GlgX, GlgXE47A-R49A and GlgXR438A-R579A for F-c-di-GMP in red, green and blue respectively. Also shown is the binding isotherm for GlgX binding to F-c-di-AMP in black. […] The y-axis and x-axis are millipolarization (mP) units and GlgX concentration (μM), respectively. Shown are representative binding curves for each. The experiments were performed in technical triplicates and the error between measurements reported. Error bars represent SD of the measurements. Source data are provided in the Source data file.
Thus, we used this F-tagged c-di-GMP in fluorescence polarization (FP) studies to quantify the interaction between GlgX and c-di-GMP. […] To ensure that the presence of the fluorescent tag was not impacting the GlgX interaction with c-di-GMP we used microscale thermophoresis (MST) to quantify c-di-GMP binding to GlgX. […] But to further probe the structural model we created GlgXE47A-R49A and GlgXR438A-R579A mutants and performed FP studies with these proteins.
To measure c-di-GMP binding to GlgX and GlgX mutants, 2′-O-(6-[Fluoresceinyl]aminohexylcarbamoyl)-cyclic diguanosine monophosphate (2′-Fluo-AHC-c-di-GMP) (BioLog), was used as a fluoresceinated reporter ligand. This molecule is conjugated via a nine atom spacer to one of the c-di-GMP 2′ hydroxyl groups. […] 2′-O-(6-[Fluoresceinyl]aminohexylcarbamoyl)-cyclic diadenosine monophosphate (2′-Fluo-AHC-c-di-AMP) (BioLog) was also used in binding studies to assess specificity of GlgX for c-di-GMP. […]

Chain of GlgX (F2RAW5 entry or part of it): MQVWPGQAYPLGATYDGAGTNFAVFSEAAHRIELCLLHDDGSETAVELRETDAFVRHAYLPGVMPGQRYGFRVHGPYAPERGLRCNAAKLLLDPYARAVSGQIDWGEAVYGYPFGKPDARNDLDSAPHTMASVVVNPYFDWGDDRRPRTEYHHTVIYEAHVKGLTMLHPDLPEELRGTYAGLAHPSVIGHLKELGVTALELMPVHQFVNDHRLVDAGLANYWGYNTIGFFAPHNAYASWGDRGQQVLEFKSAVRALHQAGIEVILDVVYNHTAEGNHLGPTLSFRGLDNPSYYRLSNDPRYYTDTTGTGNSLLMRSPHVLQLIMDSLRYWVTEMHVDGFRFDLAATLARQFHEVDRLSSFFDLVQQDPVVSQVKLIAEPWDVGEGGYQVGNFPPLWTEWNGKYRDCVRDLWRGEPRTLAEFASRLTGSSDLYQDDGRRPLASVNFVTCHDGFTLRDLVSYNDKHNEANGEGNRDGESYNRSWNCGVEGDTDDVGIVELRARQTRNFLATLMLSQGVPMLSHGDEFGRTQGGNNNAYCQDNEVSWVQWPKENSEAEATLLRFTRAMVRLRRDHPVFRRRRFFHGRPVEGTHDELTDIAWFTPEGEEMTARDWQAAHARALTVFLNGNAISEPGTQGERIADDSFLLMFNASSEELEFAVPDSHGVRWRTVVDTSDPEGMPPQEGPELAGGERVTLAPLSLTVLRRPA

For Nc1nc2c(ncn2[C@@H]2O[C@@H]3CO[P@](=O)(O)O[C@H]4[C@@H](O)[C@H](n5cnc6c(=O)[nH]c(N)nc65)O[C@@H]4CO[P@](=O)(O)O[C@H]3[C@H]2O)c(=O)[nH]1 [c-di-GMP, bis-(3′−5′)-cyclic diguanosine monophosphate], which “binding to mutant in FP” value [1] is on record?
The value was “weak, nonsaturable binding”.

What about the “stimulation of enzyme activity by c-di-GMP” value [2] of the same compound?
Its value is “could not be stimulated”.

And the Kd [3]?
The Kd was 0.39 ± 0.05 µM.

What about the Kd [4] of the same compound?
Its Kd is about 8 µM.
